Laboratory results as given in patent US20250268900A1, “COMBINATION THERAPY USING A SUBSTITUTED PYRIMIDIN-4(3H)-ONE AND NIVOLUMAB AS WELL AS ITS USE IN THE TREATMENT OF CANCER” (BRISTOL-MYERS SQUIBB COMPANY, priority 2022, published 2025).

How the values were obtained:
[1] = test system: CT-26 KRAS D12C KI tumor; conditions: CT-26 KRAS D12C KI bearing Balb/c mice, n = 10
From the text: Animal Receipt and Housing. For the CT-26 CRISPR knock-in KRAS D12C study, protocols and procedures involving the care and use of animals were reviewed and approved by the Charles River Accelerator and Development Lab (CRADL) Institutional Animal Care and Use Committee (IACUC) prior to execution. The animal care and use program has been fully accredited by the Association for Assessment and Accreditation of Laboratory Animal Care International (AAALAC). Balb/c female mice (Envigo; Inotiv Inc.) were ordered, aged six to eight weeks at receipt, and identified by ear notch. Animals were acclimated for a period of eleven days prior to tumor inoculation. For the duration of the acclimation period and throughout the study, mice were group-housed up to five animals per cage in disposable polycarbonate IVC cages (Innovive; San Diego, CA) which consisted of a layer of Alpha-Dri bedding (Sheppard Specialty Papers, Inc., Kalamazoo, MI), a certified enrichment block and diamond-twist, and a certified polycarbonate housing device. Mice were presented with rodent diet pellet and irradiated reverse-osmosis Aquavive® drinking water (Innovive; San Diego, CA), ad libitum. The vivarium temperature was maintained between 20° C. through 26° C. and an environmental humidity between 30% through 70%. The interior room lighting was cycled twelve hours on and twelve hours off.
Tumor Cell Line Culture and Inoculation. […] Cells were screened and confirmed negative for mouse pathogens (IDEXX) and maintained in-vitro at 37° C., 5% CO2 atmosphere in 10% (v/v) fetal bovine serum (FBS, Invitrogen) and 90% (v/v) Roswell Park Memorial Institute (RPMI) 1640 Medium (Gibco) on T150 flasks. For implantation, cells were harvested with 0.25% Trypsin-EDTA (Gibco), washed in DPBS (Gibco), counted and viability determined with trypan blue exclusion using Vi-Cell XR (Beckman Coulter), then brought up in a 1:1 ratio of DPBS:Matrigel to a final concentration of 3×10^6 cells/mL. […]

[2] = test system: IFNγ; test: IFNγ concentration in PBMC supernatants 5 days post CEFT stimulation, TR-FRET; format: cell-based; conditions: 5 days after CEFT stimulation; data not shown
Protocol: (§1) A study was performed to evaluate the effect of the SHP2 inhibitor Compound (10b) alone and in combination with αPD-L1 on T cell cytokine production and killing potential in response to antigenic stimulation. PBMCs from four healthy donors were stimulated with a CEFT peptide pool and treated with vehicle, isotype control, αPD-L1, a titration of Compound (10b), or a titration of Compound (10b) with the addition of either isotype control or αPD-L1. After the initial CEFT stimulation, the cultures were rested and cytokines were added to expand the number of responding CD8+ T cells. Cells were then restimulated with the CEFT peptide pool for 24 hours, and the frequency of CD107a+ cells as a percentage of total CD8+ T cells was assessed by flow cytometry. In addition, at 5 days post stimulation, the supernatents were harvested and the concentration of IFNγ was measured by TR-FRET. FIG. 1A-FIG. 1B show results from this study.

[3] = test system: CD8+ T cells; test: CD8+ activation in PBMCs: CD107a+ cells as a percentage of total CD8+ T cells after CEFT peptide pool stimulation, flow cytometry; format: cell-based; conditions: PBMCs restimulated with CEFT peptide pool 24 hours, titration of Compound (10b) alone or with αPD-L1
Protocol: as §1

Cc1c(N2CCC3(CC2)CO[C@@H](C)[C@H]3N)nc(C)n(-c2cccc(Cl)c2Cl)c1=O (atropisomer, axis not shown; (Ra)) [Compound (10b), 6-((3S,4S)-4-amino-3-methyl-2-oxa-8-azaspiro[4.5]decan-8-yl)-3-(Ra)-(2,3-dichlorophenyl)-2,5-dimethyl-4(3H)-pyrimidinone]
Median Progression-Free to Tumor Burden Endpoint ([1]; Formula (10b) 100 mg/kg PO QD×35, ANTIBODY A 10 mg/kg IP Q4D×4, endpoint tumor volume >1,500 mm^3): 19 Study Day
Hazard Ratio Treatment/ANTIBODY A (Group 2) ([1]; Mantel-Haenszel hazard ratio vs ANTIBODY A alone, progression-free to tumor burden endpoint (tumor volume >1,500 mm^3)): 1.230
Hazard Ratio Treatment/Control (Group 1) ([1]; Mantel-Haenszel hazard ratio vs Vehicle Control + MOPC-21 Isotype, progression-free to tumor burden endpoint (tumor volume >1,500 mm^3)): 0.261
IFNγ levels [2]: inconsistent across donors
CD107a+CD8+ T cells (frequency of CD107a+ cells as a percentage of total CD8+ T cells) ([3]; donor 1): clear Compound (10b) dose-dependent effect
CD107a+CD8+ T cells (frequency of CD107a+ cells as a percentage of total CD8+ T cells) ([3]; donor 2): dose dependent decrease
CD107a+CD8+ T cells (frequency of CD107a+ cells as a percentage of total CD8+ T cells) ([3]; donor 3): some Compound (10b) effect
CD107a+CD8+ T cells (frequency of CD107a+ cells as a percentage of total CD8+ T cells) ([3]; donor 4): no Compound (10b) effect
